# Experimental data reported in paper PMC12281475, “Mediator Kinase Inhibitor Selectivity and Activity in Colorectal Cancer” (ACS Chemical Biology, 2025).
# Experiments:
# Format in all cases: biochemical
# [1] = biological target: T1, CDK16_CycY (Homo sapiens, UniProt Q00536); experiment: Radiometric protein kinase assay (33PanQinase), CDK16_CycY; conditions: for Hill Slope: slope of the IC50 fit
# T1 construct: purchased Reaction Biology
# [2] = biological target: T2, CDK19_CycC (Homo sapiens, UniProt Q9BWU1); experiment: Radiometric protein kinase assay (33PanQinase), CDK19_CycC; conditions: for Hill Slope: slope of the IC50 fit
# T2 construct: purchased Reaction Biology
# T2 sequence (Q9BWU1 whole entry): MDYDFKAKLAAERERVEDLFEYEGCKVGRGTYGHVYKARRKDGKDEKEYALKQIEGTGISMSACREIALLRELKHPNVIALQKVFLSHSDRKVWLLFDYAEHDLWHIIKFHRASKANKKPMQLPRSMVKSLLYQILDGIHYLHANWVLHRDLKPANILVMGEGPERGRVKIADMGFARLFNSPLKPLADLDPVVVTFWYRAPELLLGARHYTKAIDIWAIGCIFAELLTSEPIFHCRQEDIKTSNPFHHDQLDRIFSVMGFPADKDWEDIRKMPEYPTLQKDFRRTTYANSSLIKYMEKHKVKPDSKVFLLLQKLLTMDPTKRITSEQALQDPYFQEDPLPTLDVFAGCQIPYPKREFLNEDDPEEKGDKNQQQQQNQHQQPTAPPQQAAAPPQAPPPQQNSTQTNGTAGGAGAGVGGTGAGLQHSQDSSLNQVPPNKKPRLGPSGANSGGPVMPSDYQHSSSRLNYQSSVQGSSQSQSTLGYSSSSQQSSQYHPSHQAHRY
# T2 sequence (P24863 whole entry partner): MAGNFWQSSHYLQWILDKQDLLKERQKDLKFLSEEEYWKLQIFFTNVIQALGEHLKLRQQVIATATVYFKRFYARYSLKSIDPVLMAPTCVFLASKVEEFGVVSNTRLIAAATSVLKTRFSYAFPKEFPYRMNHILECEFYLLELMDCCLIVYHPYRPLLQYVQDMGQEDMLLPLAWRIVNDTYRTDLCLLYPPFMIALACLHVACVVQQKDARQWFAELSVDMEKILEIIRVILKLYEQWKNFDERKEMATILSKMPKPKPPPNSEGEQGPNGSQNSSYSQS
# [3] = biological target: T3, CDK1_CycB1 (Homo sapiens, UniProt P06493); experiment: Radiometric protein kinase assay (33PanQinase), CDK1_CycB1; conditions: for Hill Slope: slope of the IC50 fit
# T3 construct: purchased Reaction Biology
# [4] = biological target: T4, CDK2_CycE1 (Homo sapiens, UniProt P24941); experiment: Radiometric protein kinase assay (33PanQinase), CDK2_CycE1; conditions: for IC50: highest assay concentration 1.00E-05 M, read-out: IC50; for Hill Slope: slope of the IC50 fit
# T4 construct: purchased Reaction Biology
# [5] = biological target: CDK10_CycQ (Homo sapiens, UniProt Q15131); experiment: Radiometric protein kinase assay (33PanQinase), CDK10_CycQ; conditions: for Hill Slope: slope of the IC50 fit
# [6] = biological target: T5, CDK9_CycT1 (Homo sapiens, UniProt P50750); experiment: Radiometric protein kinase assay (33PanQinase), CDK9_CycT1; conditions: for IC50: highest assay concentration 1.00E-05 M; for Hill Slope: slope of the IC50 fit
# T5 construct: purchased Reaction Biology
# [7] = biological target: CDK18_CycY (Homo sapiens, UniProt Q07002); experiment: Radiometric protein kinase assay (33PanQinase), CDK18_CycY; conditions: for IC50: highest assay concentration 1.00E-05 M; for Hill Slope: slope of the IC50 fit
# CDK18_CycY, sequence (Q07002 whole entry): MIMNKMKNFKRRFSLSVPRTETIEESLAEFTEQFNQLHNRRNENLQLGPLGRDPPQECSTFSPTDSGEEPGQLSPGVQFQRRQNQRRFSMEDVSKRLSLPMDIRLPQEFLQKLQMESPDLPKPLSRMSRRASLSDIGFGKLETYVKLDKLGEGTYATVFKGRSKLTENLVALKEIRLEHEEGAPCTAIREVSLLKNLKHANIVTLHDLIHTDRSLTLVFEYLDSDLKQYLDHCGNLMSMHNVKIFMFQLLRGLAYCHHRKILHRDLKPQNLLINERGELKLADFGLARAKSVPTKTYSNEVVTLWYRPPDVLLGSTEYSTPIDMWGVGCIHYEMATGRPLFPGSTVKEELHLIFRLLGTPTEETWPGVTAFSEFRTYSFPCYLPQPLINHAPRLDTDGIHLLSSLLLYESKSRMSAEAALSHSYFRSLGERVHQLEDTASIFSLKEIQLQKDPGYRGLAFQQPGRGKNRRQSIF
# CDK18_CycY, sequence (Q8ND76 whole entry partner): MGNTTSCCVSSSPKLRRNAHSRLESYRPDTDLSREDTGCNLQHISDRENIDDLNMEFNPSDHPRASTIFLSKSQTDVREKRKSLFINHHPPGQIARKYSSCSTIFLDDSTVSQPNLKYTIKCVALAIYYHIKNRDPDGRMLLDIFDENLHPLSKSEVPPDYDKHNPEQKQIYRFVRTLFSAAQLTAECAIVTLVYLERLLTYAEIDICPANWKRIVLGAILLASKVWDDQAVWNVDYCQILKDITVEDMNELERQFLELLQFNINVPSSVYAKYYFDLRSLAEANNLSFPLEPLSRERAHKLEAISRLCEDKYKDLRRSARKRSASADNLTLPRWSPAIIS
# [8] = biological target: T6, CDK2_CycA2 (Homo sapiens, UniProt P24941); experiment: Radiometric protein kinase assay (33PanQinase), CDK2_CycA2; conditions: for IC50: highest assay concentration 1.00E-05 M, read-out: IC50; for Hill Slope: slope of the IC50 fit
# T6 construct: purchased Reaction Biology
# [9] = biological target: T7, CDK4_CycD2 (Homo sapiens, UniProt P11802); experiment: Radiometric protein kinase assay (33PanQinase), CDK4_CycD2; conditions: for Hill Slope: slope of the IC50 fit
# T7 construct: purchased Reaction Biology
# [10] = biological target: CDK11B 357-795_CycK (Homo sapiens, UniProt P21127); experiment: Radiometric protein kinase assay (33PanQinase), CDK11B 357-795_CycK; conditions: for Hill Slope: slope of the IC50 fit
# CDK11B 357-795_CycK, sequence (P21127 357-795): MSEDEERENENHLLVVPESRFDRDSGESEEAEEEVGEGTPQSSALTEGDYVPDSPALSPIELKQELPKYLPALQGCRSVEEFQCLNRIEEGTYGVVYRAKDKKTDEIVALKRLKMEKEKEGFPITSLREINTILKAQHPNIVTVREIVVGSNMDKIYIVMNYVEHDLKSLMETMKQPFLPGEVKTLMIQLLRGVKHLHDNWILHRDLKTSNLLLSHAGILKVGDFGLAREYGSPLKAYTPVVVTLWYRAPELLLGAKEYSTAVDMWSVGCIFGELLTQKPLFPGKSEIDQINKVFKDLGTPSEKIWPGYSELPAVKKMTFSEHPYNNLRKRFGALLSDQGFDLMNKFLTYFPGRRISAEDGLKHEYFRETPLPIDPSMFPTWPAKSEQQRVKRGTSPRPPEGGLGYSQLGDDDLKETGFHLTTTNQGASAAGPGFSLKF
# [11] = biological target: T8, CDK2_CycD1 (Homo sapiens, UniProt P24941); experiment: Radiometric protein kinase assay (33PanQinase), CDK2_CycD1; conditions: slope of the IC50 fit
# T8 construct: purchased Reaction Biology
# [12] = biological target: T9, CDK6_CycD3 (Homo sapiens, UniProt Q00534); experiment: Radiometric protein kinase assay (33PanQinase), CDK6_CycD3; conditions: for Hill Slope: slope of the IC50 fit
# T9 construct: purchased Reaction Biology
# [13] = biological target: T10, CDK6_CycD1 (Homo sapiens, UniProt Q00534); experiment: Radiometric protein kinase assay (33PanQinase), CDK6_CycD1; conditions: for Hill Slope: slope of the IC50 fit
# T10 construct: purchased Reaction Biology
# [14] = biological target: T11, CDK7_CycH_MAT1 (Homo sapiens, UniProt P50613); experiment: Radiometric protein kinase assay (33PanQinase), CDK7_CycH_MAT1; conditions: for Hill Slope: slope of the IC50 fit
# T11 construct: purchased Reaction Biology
# [15] = biological target: CDK20_CycH (Homo sapiens, UniProt Q8IZL9); experiment: Radiometric protein kinase assay (33PanQinase), CDK20_CycH; conditions: for IC50: highest assay concentration 1.00E-05 M; for Hill Slope: slope of the IC50 fit
# [16] = biological target: T12, CDK5_p35NCK (Homo sapiens, UniProt Q00535); experiment: Radiometric protein kinase assay (33PanQinase), CDK5_p35NCK; conditions: for IC50: highest assay concentration 1.00E-05 M; for Hill Slope: slope of the IC50 fit
# T12 construct: purchased Reaction Biology
# [17] = biological target: CDK17_p35NCK (Homo sapiens, UniProt Q00537); experiment: Radiometric protein kinase assay (33PanQinase), CDK17_p35NCK; conditions: slope of the IC50 fit
# [18] = biological target: T13, CDK1_CycE1 (Homo sapiens, UniProt P06493); experiment: Radiometric protein kinase assay (33PanQinase), CDK1_CycE1; conditions: for IC50: highest assay concentration 1.00E-05 M, read-out: IC50; for Hill Slope: slope of the IC50 fit
# T13 construct: purchased Reaction Biology
# [19] = biological target: T14, CDK6_CycD2 (Homo sapiens, UniProt Q00534); experiment: Radiometric protein kinase assay (33PanQinase), CDK6_CycD2; conditions: for Hill Slope: slope of the IC50 fit
# T14 construct: purchased Reaction Biology
# [20] = biological target: T15, CDK5_p25NCK (Homo sapiens, UniProt Q00535); experiment: Radiometric protein kinase assay (33PanQinase), CDK5_p25NCK; conditions: for IC50: highest assay concentration 1.00E-05 M; for Hill Slope: slope of the IC50 fit
# T15 construct: purchased Reaction Biology
# [21] = biological target: T16, CDK3_CycE1 (Homo sapiens, UniProt Q00526); experiment: Radiometric protein kinase assay (33PanQinase), CDK3_CycE1; conditions: for Hill Slope: slope of the IC50 fit
# T16 construct: purchased Reaction Biology
# [22] = biological target: T17, CDK4_CycD3 (Homo sapiens, UniProt P11802); experiment: Radiometric protein kinase assay (33PanQinase), CDK4_CycD3; conditions: for Hill Slope: slope of the IC50 fit
# T17 construct: purchased Reaction Biology
# [23] = biological target: CDK14_CycY (Homo sapiens, UniProt O94921); experiment: Radiometric protein kinase assay (33PanQinase), CDK14_CycY; conditions: for Hill Slope: slope of the IC50 fit
# [24] = biological target: T18, CDK8_CycC (Homo sapiens, UniProt P49336); experiment: Radiometric protein kinase assay (33PanQinase), CDK8_CycC; conditions: for IC50: highest assay concentration 1.00E-05 M, read-out: IC50; for Hill Slope: slope of the IC50 fit
# T18 construct: purchased Reaction Biology
# [25] = biological target: T19, CDK13_CycK (Homo sapiens, UniProt Q14004); experiment: Radiometric protein kinase assay (33PanQinase), CDK13_CycK; conditions: for Hill Slope: slope of the IC50 fit
# T19 construct: purchased Reaction Biology
# T19 sequence (Q14004 whole entry): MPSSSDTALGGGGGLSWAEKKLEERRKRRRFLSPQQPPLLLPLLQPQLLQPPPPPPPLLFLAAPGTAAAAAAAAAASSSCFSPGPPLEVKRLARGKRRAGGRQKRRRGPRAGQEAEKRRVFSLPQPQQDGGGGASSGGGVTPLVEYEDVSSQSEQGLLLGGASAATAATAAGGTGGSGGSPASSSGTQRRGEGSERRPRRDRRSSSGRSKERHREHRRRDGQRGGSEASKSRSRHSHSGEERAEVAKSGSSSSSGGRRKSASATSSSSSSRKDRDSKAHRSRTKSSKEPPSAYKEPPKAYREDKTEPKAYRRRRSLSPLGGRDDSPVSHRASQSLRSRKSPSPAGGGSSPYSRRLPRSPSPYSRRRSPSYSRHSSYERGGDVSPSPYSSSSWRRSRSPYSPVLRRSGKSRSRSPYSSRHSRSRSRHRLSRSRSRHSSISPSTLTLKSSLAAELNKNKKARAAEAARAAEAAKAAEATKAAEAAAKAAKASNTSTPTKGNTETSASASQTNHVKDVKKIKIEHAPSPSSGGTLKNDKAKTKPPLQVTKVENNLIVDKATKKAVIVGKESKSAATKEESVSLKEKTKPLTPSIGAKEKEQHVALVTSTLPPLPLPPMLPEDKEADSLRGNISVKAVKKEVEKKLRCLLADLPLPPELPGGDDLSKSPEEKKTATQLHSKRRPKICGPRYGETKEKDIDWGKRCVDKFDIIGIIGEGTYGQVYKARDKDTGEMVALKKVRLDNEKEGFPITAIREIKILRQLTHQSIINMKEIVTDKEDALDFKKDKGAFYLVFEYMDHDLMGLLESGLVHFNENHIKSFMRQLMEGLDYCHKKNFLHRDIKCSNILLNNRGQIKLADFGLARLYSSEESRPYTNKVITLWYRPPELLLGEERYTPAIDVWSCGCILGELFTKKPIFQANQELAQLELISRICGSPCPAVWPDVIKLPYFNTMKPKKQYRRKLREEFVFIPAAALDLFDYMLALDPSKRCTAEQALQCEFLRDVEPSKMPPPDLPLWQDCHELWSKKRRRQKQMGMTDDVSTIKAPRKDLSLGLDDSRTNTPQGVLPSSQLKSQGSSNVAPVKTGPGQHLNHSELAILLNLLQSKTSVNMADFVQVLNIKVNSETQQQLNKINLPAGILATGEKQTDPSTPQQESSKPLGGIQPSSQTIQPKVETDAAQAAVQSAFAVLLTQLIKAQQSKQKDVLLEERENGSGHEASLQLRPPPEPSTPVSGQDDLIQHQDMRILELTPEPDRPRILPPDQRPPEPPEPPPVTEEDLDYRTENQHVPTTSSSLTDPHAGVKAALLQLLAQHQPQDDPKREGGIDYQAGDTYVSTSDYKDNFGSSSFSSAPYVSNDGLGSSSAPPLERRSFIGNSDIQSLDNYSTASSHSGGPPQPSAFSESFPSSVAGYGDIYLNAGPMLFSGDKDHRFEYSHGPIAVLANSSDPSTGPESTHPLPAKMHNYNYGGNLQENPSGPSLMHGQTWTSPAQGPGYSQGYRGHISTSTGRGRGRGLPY
# T19 sequence (O75909 whole entry partner): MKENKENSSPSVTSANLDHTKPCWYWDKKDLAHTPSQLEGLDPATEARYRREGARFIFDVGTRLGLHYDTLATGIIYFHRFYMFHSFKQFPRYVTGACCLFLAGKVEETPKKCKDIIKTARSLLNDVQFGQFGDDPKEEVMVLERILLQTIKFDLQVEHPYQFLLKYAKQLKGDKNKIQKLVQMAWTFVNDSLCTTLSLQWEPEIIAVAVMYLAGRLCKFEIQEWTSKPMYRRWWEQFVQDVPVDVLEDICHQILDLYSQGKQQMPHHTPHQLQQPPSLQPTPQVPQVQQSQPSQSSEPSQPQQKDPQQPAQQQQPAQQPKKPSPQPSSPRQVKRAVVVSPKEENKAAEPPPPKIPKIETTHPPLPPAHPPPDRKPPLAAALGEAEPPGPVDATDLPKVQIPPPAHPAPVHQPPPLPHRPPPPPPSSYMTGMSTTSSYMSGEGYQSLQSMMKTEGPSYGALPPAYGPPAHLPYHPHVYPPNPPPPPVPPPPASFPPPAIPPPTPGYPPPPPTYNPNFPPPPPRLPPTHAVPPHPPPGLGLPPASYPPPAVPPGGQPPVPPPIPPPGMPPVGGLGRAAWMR
# [26] = biological target: T20, CDK1_CycA2 (Homo sapiens, UniProt P06493); experiment: Radiometric protein kinase assay (33PanQinase), CDK1_CycA2; conditions: for Hill Slope: slope of the IC50 fit
# T20 construct: purchased Reaction Biology
# [27] = biological target: T21, CDK3_CycC (Homo sapiens, UniProt Q00526); experiment: Radiometric protein kinase assay (33PanQinase), CDK3_CycC; conditions: for Hill Slope: slope of the IC50 fit
# T21 construct: purchased Reaction Biology
# [28] = biological target: T22, CDK12_CycK (Homo sapiens, UniProt Q9NYV4); experiment: Radiometric protein kinase assay (33PanQinase), CDK12_CycK; conditions: for Hill Slope: slope of the IC50 fit
# T22 construct: purchased Reaction Biology
# [29] = biological target: T23, CDK15_CycA2 (Homo sapiens, UniProt Q96Q40); experiment: Radiometric protein kinase assay (33PanQinase), CDK15_CycA2; conditions: for IC50: highest assay concentration 1.00E-05 M; for Hill Slope: slope of the IC50 fit
# T23 construct: purchased Reaction Biology
# T23 sequence (Q96Q40 whole entry): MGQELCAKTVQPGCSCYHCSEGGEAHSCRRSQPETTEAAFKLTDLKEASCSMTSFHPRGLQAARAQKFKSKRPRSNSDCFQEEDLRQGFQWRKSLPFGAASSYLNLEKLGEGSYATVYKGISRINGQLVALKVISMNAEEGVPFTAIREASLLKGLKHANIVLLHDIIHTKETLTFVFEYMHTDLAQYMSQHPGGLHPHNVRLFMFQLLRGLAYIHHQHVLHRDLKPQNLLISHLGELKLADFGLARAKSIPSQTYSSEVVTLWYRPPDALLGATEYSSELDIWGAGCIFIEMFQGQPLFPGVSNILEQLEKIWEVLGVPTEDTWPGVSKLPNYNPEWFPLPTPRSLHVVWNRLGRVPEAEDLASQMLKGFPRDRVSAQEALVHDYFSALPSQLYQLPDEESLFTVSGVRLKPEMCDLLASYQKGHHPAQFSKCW
# [30] = biological target: CDK20_CycT1 (Homo sapiens, UniProt Q8IZL9); experiment: Radiometric protein kinase assay (33PanQinase), CDK20_CycT1; conditions: for IC50: highest assay concentration 1.00E-05 M; for Hill Slope: slope of the IC50 fit
# [31] = biological target: T24, CDK4_CycD1 (Homo sapiens, UniProt P11802); experiment: Radiometric protein kinase assay (33PanQinase), CDK4_CycD1; conditions: for Hill Slope: slope of the IC50 fit
# T24 construct: purchased Reaction Biology
# [32] = biological target: T25, CDK9_CycK (Homo sapiens, UniProt P50750); experiment: Radiometric protein kinase assay (33PanQinase), CDK9_CycK; conditions: for IC50: highest assay concentration 1.00E-05 M; for Hill Slope: slope of the IC50 fit
# T25 construct: purchased Reaction Biology
# T25 sequence (P50750 whole entry): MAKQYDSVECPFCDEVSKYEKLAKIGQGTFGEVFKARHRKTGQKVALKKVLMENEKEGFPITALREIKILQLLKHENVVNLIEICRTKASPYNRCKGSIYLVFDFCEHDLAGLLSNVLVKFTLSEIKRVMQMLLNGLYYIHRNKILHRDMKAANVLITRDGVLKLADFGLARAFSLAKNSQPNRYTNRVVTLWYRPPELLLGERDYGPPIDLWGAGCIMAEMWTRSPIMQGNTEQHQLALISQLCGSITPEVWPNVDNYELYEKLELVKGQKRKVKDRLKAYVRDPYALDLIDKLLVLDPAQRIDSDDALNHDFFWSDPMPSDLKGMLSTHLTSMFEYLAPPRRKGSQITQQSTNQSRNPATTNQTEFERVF
# T25 sequence (O75909 whole entry partner): as the sequence (O75909 whole entry partner) above
# [33] = highest assay concentration 1.00E-05 M, read-out: IC50
# [34] = highest assay concentration 1.00E-05 M
structure (smiles),measurement,setting,value
"Cc1c(Br)c(Br)c2c3c1nc(N1CCNCC1)n3CCC2.Cl [SEL120-34A, reference compound]",Hill Slope,[1],-0.52
same,IC50,[2]; [33],0.437 µM
same,Hill Slope,[2],-0.83
same,IC50,[3]; [34],7.62 µM
same,Hill Slope,[3],-0.55
same,IC50,[4],2.7 µM
same,Hill Slope,[4],-1.13
same,Hill Slope,[5],-0.83
same,IC50,[6],0.957 µM
same,Hill Slope,[6],-1.23
same,IC50,[7],7.84 µM
same,Hill Slope,[7],-0.81
same,IC50,[8],2.22 µM
same,Hill Slope,[8],-1.14
same,Hill Slope,[9],-0.75
same,Hill Slope,[10],-0.45
same,Hill Slope,[11],-0.7
same,Hill Slope,[12],-0.38
same,Hill Slope,[13],-0.06
same,Hill Slope,[14],-0.9
same,IC50,[15],1.13 µM
same,Hill Slope,[15],-0.52
same,IC50,[16],4.55 µM
same,Hill Slope,[16],-0.92
same,Hill Slope,[17],-0.56
same,IC50,[18],5 µM
same,Hill Slope,[18],-1.01
same,Hill Slope,[19],-0.78
same,IC50,[20],7.39 µM
same,Hill Slope,[20],-0.75
same,Hill Slope,[21],-0.48
same,Hill Slope,[22],-0.78
same,Hill Slope,[23],-0.83
same,IC50,[24],0.193 µM
same,Hill Slope,[24],-0.81
same,IC50,[25]; [33],0.292 µM
same,Hill Slope,[25],-0.51
same,IC50,[26]; [33],7.1 µM
same,Hill Slope,[26],-0.95
same,IC50,[27]; [33],4.82 µM
same,Hill Slope,[27],-0.87
same,IC50,[28]; [34],0.702 µM
same,Hill Slope,[28],-0.91
same,IC50,[29],7.49 µM
same,Hill Slope,[29],-0.86
same,IC50,[30],1.12 µM
same,Hill Slope,[30],-0.7
same,Hill Slope,[31],-0.69
same,IC50,[32],0.597 µM
same,Hill Slope,[32],-1.14
"CN1CCN(C(=O)c2ccc3cc(CCNc4ncnc5ccc(C#N)cc45)ccc3c2)CC1 [Senexin B, reference compound]",IC50,[1]; [34],> 10 µM
same,Hill Slope,[1],-0.95
same,Hill Slope,[2],-0.53
same,Hill Slope,[3],-0.12
same,IC50,[4],> 10 µM
same,Hill Slope,[4],-0.46
same,IC50,[5]; [34],> 10 µM
same,Hill Slope,[5],-0.47
same,IC50,[6],9.43 µM
same,Hill Slope,[6],-0.82
same,IC50,[7],> 10 µM
same,Hill Slope,[7],-0.39
same,IC50,[8],> 10 µM
same,Hill Slope,[8],-0.76
same,IC50,[9]; [34],> 10 µM
same,Hill Slope,[9],-0.64
same,IC50,[10]; [34],> 10 µM
same,Hill Slope,[10],-0.19
same,Hill Slope,[11],-0.18
same,IC50,[12]; [34],> 10 µM
same,Hill Slope,[12],-0.32
same,IC50,[13]; [34],> 10 µM
same,Hill Slope,[13],-0.17
same,IC50,[14]; [34],> 10 µM
same,Hill Slope,[14],-0.55
same,IC50,[15],> 10 µM
same,Hill Slope,[15],-0.32
same,IC50,[16],> 10 µM
same,Hill Slope,[16],-0.43
same,Hill Slope,[17],-0.16
same,IC50,[18],> 10 µM
same,Hill Slope,[18],-0.4
same,IC50,[19]; [34],> 10 µM
same,Hill Slope,[19],-0.36
same,IC50,[20],> 10 µM
same,Hill Slope,[20],-0.24
same,IC50,[21]; [33],> 10 µM
same,Hill Slope,[21],-0.36
same,IC50,[22]; [34],> 10 µM
same,Hill Slope,[22],-0.51
same,IC50,[23]; [34],> 10 µM
same,Hill Slope,[23],-0.57
same,IC50,[24],0.165 µM
same,Hill Slope,[24],-0.56
same,Hill Slope,[25],-0.12
same,Hill Slope,[26],-0.17
same,Hill Slope,[27],-0.01
same,Hill Slope,[28],-0.18
same,IC50,[29],> 10 µM
same,Hill Slope,[29],-0.78
same,IC50,[30],> 10 µM
same,Hill Slope,[30],-0.45
same,IC50,[31]; [34],> 10 µM
same,Hill Slope,[31],-0.51
same,IC50,[32],5.16 µM
same,Hill Slope,[32],-0.6
